Experimental data reported in US20250026725A1, “HYDRATE CRYSTAL OF 5-CHLORO-4-(3-CHLORO-4- METHYLPHENYL)-1H-IMIDAZOLE-2-CARBONITRILE” (ISHIHARA SANGYO KAISHA, LTD., priority 2021, published 2025).
Values belong to the compound of their own block, whether it stands above or below them.

Legend:
[1] = Drying test; type: physicochemical; conditions: 25° C., dried (silica gel), weighing bottle
Description: The hydrate crystal of Production Example 1 was stored at 25° C. under a dried condition (in the presence of silica gel) for a period shown in Table 2. The Karl Fischer moisture content after storage was measured, and the change in moisture content was observed.

[2] = Moisture absorption test; type: physicochemical; conditions: 60° C./80% RH, paper bag
Description: An anhydrous crystal sample was placed in a container (glass weighing bottle or paper bag) in such a manner that it was in direct contact with the damp. […] In addition, a sample for the hydrate crystal (Production Example 1) was also preserved at 60° C./80% RH, and the change in moisture content was observed through the change in weight or Karl Fischer moisture measurement.

[3] = Karl Fischer moisture content measurement (volumetric titration method); type: physicochemical; conditions: atmosphere of 25° C., as obtained
Description: The moisture content rates of the hydrate crystals obtained in Production Examples 1 and 2, and the anhydrous crystals used as a raw material in Production Example 1 were measured with a Karl Fischer moisture meter (CA-310, manufactured by Nittoseiko Analytech Co., Ltd.). The test was conducted in conformance with the description in The Japanese Pharmacopoeia, 18th Edition, “2.48 Water Determination (Karl Fischer Method)”, Volumetric titration. The measurement was performed in an atmosphere of 25° C., with the conditions set to a forced delay time of 2 minutes after sample administration, a minimum amount to be titrated of 2 μL, and an end point voltage of 140 mV. More specifically, it was as follows. First, into a measuring flask, methanol for moisture measurement (Aquamicron Dehydrated Solvent GEX, manufactured by Mitsubishi Chemical Corporation) was loaded, and 30 mg of water was added thereto to titrate the mixture with a Karl Fischer reagent (Aquamicron SS-Z, manufactured by Mitsubishi Chemical Corporation). After titration, a titer (mg/mL) of the reagent was determined from the amount titrated. Next, about 0.1 g of a measurement sample was precisely weighed and added into the measuring flask to titrate the mixture with a Karl Fischer reagent. The moisture content (w/w %) in the sample was calculated from the amount titrated and the previously determined titer.

[4] = Test of triboelectrification properties; type: physicochemical; conditions: for Decrease of potential retention rate: at 20 minutes later
Description: First, the sample was loaded into a levelled stainless steel petri dish having φ50 mm×a height of 15 mm, and then it was statically eliminated with a static eliminator (STABLO AP, manufactured by SHIMADZU CORPORATION). The surface potential of the sample was measured with a surface electrometer (SV-77A, manufactured by NIPPON STATIC CO., LTD.) that had previously been zero-point adjusted, to confirm that it was statically eliminated (within −1 to +1 kV). Next, the sample surface of the petri dish loaded with the sample was scraped back and forth 20 times with a stainless steel metal plate for 10 seconds to charge the sample surface. After that, the petri dish loaded with the charged sample was placed on a metal plate (30 cm×30 cm) connected with a ground wire. The surface potential of the sample was measured over time for 20 minutes with the above surface electrometer. The triboelectrification properties were evaluated from the initial surface potential. In addition, the retention rate was calculated from the surface potential after 20 minutes and the initial surface potential to evaluate charge attenuation properties. Note that the test was conducted in an electrostatic measurement chamber (Tabai ESPEC CORP.) set to 25° C. and 50% RH, and the surface potential measurement was conducted at a distance of 1 cm from the sample surface.

[5] = system: Trichophyton rubrum (ATCCMYA4607); test: Antifungal activity test, minimum inhibitory concentration (MIC100); type: cell-based; conditions: Table 21, same method as Test Example 12, read-out: Minimal fungicidal concentration (MFC100)
Description: Trichophyton rubrum was cultured on a Sabouraud medium at 32° C. for 168 hours to form spores. Mycelia were peeled from a medium surface and collected into a tube, physiological saline solution (OTSUKA NORMAL SALINE; containing the equivalent of 9 g of sodium chloride in 1000 mL) was added thereto, and the entire mixture was mixed and dispersed with a disposable loop (Type 1 (1 μL)) to collect a spore suspension containing mycelia. The spore suspension containing mycelia was filtered through a cell strainer (+40 μm). Spores were collected from a filtrate by centrifugation (3500 rpm, 5 minutes), and washed twice with physiological saline to prepare a spore suspension (1×10^6 cells/mL). 10 μL of the spore suspension was inoculated into the Sabouraud medium to which the test compound dissolved in DMSO was added so as to have a predetermined concentration. Trichophyton rubrum was cultured at 32° C. for 72 hours, and then the presence or absence of the development of colonies was examined to determine a minimum inhibitory concentration (MIC100).
A minimum inhibitory concentration (MIC100) for Trichophyton rubrum (ATCCMYA4607) was determined in the same method as in Test Example 12 except that the hydrate crystal (Production Example 2) was used as the compound under test.

Karl Fischer moisture content ([1]; 0 days): 6.5% | Karl Fischer moisture content ([1]; 14 days): 6.7% | Karl Fischer moisture content ([1]; 29 days): 6.7% | Karl Fischer moisture content ([1]; 38 days): 6.7% | Karl Fischer moisture content ([1]; 53 days): 6.7% | Moisture content ([2]; 0 days): 0.1% | Weight change ([2]; 4 days): 6.4% | Weight change ([2]; 7 days): 6.4% | Weight change ([2]; 14 days): 6.5% | Moisture content ([2]; 20 days): 6.7% | Weight change ([2]; 20 days): 6.5% | Weight change ([2]; 29 days): 6.5% | Weight change ([2]; 40 days): 6.5% | Moisture content ([2]; 61 days): 6.6% | Weight change ([2]; 61 days): 6.5% | Karl Fischer moisture content ([3]; listed as hydrate crystal of Production Example 1): 6.6 wt % | Electrification voltage ([4]; 0 minutes after charging, 25° C. and 50% RH): −3.00 kv | Electrification voltage ([4]; 20 minutes after charging, 25° C. and 50% RH): −2.79 kv | Decrease of potential retention rate ([4]; 25° C. and 50% RH, listed as hydrate crystal of Production Example 1): 7% | Retention rate ([4]; surface potential after 20 minutes vs initial, 25° C. and 50% RH): 93.0%
Compound: Cc1ccc(-c2nc(C#N)[nH]c2Cl)cc1Cl [Hydrate crystal (Production Example 1), 5-chloro-4-(3-chloro-4-methylphenyl)-1H-imidazole-2-carbonitrile]

Karl Fischer moisture content ([3]; listed as hydrate crystal of Production Example 2): 6.7 wt % | Electrification voltage ([4]; 0 minutes after charging; 25° C. and 50% RH; listed as Hydrate crystal Production Example 2)): −2.30 kv | Electrification voltage ([4]; 20 minutes after charging; 25° C. and 50% RH; listed as Hydrate crystal Production Example 2)): −1.98 kv | Decrease of potential retention rate ([4]; 25° C. and 50% RH, listed as hydrate crystal of Production Example 2): 14% | Retention rate ([4]; surface potential after 20 minutes vs initial; 25° C. and 50% RH; listed as Hydrate crystal Production Example 2)): 86.1%
Compound: Cc1ccc(-c2nc(C#N)[nH]c2Cl)cc1Cl [Hydrate crystal (Production Example 2), 5-chloro-4-(3-chloro-4-methylphenyl)-1H-imidazole-2-carbonitrile]
MFC [5]: 5 µg/mL
